Read-outs that look alike come from different tables or passages of the source.
Assays:
AtTIR1 [1] = target: T1, AtTIR1 (Arabidopsis thaliana, UniProt Q570C0); experiment: SPR relative binding (co-receptor complex formation with Aux/IAA7 degron), AtTIR1; conditions: 50 μM compound; for Relative binding (in words): compared to IAA; for % of IAA binding: normalized to IAA = 100%
T1 construct: His10 (N, cleaved yes); eGFP (N, cleaved yes); FLAG (N, cleaved yes); made in house; host or cells: baculovirus; Trichoplusia ni Hi5 cells (virus generated in Sf9)
Procedure: (§1) Auxin binding assays using surface plasmon resonance (SPR) were performed on a Biacore 2000 as described previously.[3], [18], [23] Protein was stored on ice and protein concentrations were assayed by A280 nm measurement (nanodrop, Thermo Scientific). Briefly, AtAux/IAA7 degron peptide was immobilized on streptavidin‐coated SPR chips, and binding was measured in the presence of IAA or auxin analogue by recruitment of the TIR1/AFB protein from solution as the co‐receptor complex formed on the chip. Kinetic analyses were performed by single cycle kinetics on a Biacore T200 (Cytiva Life Sciences), titrating compounds against a fixed concentration of TIR1 before injection. The degron peptide density on the chips was controlled so that R max < 300 Response UNits (RU).

AtAFB2 [2] = target: T2, AtAFB2 (Arabidopsis thaliana, UniProt Q9LW29); experiment: SPR relative binding (co-receptor complex formation with Aux/IAA7 degron), AtAFB2; conditions: 50 μM compound; for Relative binding (in words): compared to IAA; for % of IAA binding: normalized to IAA = 100%
T2 construct: His10 (N, cleaved yes); eGFP (N, cleaved yes); FLAG (N, cleaved yes); made in house; host or cells: baculovirus; Trichoplusia ni Hi5 cells (virus generated in Sf9)
Procedure: as §1

AtAFB5 [3] = target: T3, AtAFB5 (Arabidopsis thaliana, UniProt Q9LTX2); experiment: SPR relative binding (co-receptor complex formation with Aux/IAA7 degron), AtAFB5; conditions: 50 μM compound; for Relative binding (in words): compared to IAA; for % of IAA binding: normalized to IAA = 100%
T3 construct: His10 (N, cleaved yes); eGFP (N, cleaved yes); FLAG (N, cleaved yes); made in house; host or cells: baculovirus; Trichoplusia ni Hi5 cells (virus generated in Sf9)
Procedure: as §1

[4] = test system: Arabidopsis thaliana wild type (WT) Col‐0; experiment: Foliar efficacy bioassay, wild type; assay type: in vivo; conditions: foliar application; for GR50 (DW % of NT): dry weight at 14 DAT
Procedure: (§2) Bioassays were carried out with the model species Arabidopsis thaliana. The wild type (WT) Col‐0 line was compared to an afb5‐1 mutant line in a Col‐0 background containing a missense mutation of R609K.[11] A. thaliana seeds were sown on Metro‐mix 360 potting mix (Sungro Horticulture) supplemented with vermiculite and stratified for 3 days at 4 °C in the dark. Flats were moved to a growth chamber (as above) and a plastic lid was placed on the flat. On germination, the lid was removed. After 2 weeks in the growth chamber, seedlings were transplanted into 3‐in. pots with Metro‐mix 360 potting mix and moved to a greenhouse. The greenhouse was maintained at a day/night temperature of 23/22 °C and supplemented with light to complete a 16 h photoperiod. Plants were allowed to recover from transplanting for 1 week prior to applications. A. thaliana seedlings were sprayed with test compounds at five rates with four replications. Tests included nontreated and solvent check controls. Individual compound doses varied and were based on plate test data or anecdotal potency. Compounds were formulated as technical material and were initially dissolved in 1 part 97:3 (v/v) acetone: dimethylsufoxide (DMSO) followed by 5 parts 1.5% (v/v) Agridex crop oil concentrate in distilled water to give a final concentration of 1.25% (v/v) Agridex. Formulated compounds were sprayed at a volume of 187 L ha^−1 at a spray height of 43 cm above the plants with an overhead Mandel track sprayer set with 8002 E Tee jet nozzle. Plants were treated at rosette stage just prior to or at initiation of bolting. After spray application, plants were allowed to dry then moved back to the greenhouse. Plants were grown in the greenhouse (same conditions as above) for 2 weeks until harvest. Visual injury/growth reduction observations were made at 7 and 14 days after treatment (DAT) and scored where 0% = no growth reduction and 100% = complete growth reduction or plant death. At 14 DAT the plants were harvested and dried to collect dry weight (DW) biomass.
(§3) The data collected in the foliar application of compounds generated a measure of sensitivity or dose response. The data was analyzed by regression in JMP 10.0 and fit to a nonlinear exponential three parameter fit model:
(§4) where a is the asymptote, b is the scale and c is the rate of growth. The model was used to determine the herbicidal dose that caused 50% reduction in growth (GR50). GR50 values were compared between mutant and WT to give an indication of fold resistance over WT (Table 3). A log‐logistic model[24] was also used to fit the data and gave similar GR50 values with greater standard errors without changing the pattern of responsiveness.

[5] = test system: Arabidopsis thaliana afb5‐1 mutant line; assay type: in vivo; conditions: for GR50 (DW % of NT) / GR50 (visual injury): afb5‐1, foliar application; for GR50 (DW % of NT): dry weight at 14 DAT; for Resistance ratio (afb5‐1 vs WT), visual injury: ratio of visual injury GR50 values; for Resistance ratio (afb5‐1 vs WT), visual injury / Resistance ratio (afb5‐1 vs WT), DW: foliar application; for Resistance ratio (afb5‐1 vs WT), DW: ratio of dry weight GR50 values
Procedure: as §2, §3, §4

[6] = test system: Arabidopsis thaliana afb5‐1 seedlings; experiment: Root growth inhibition bioassay, afb5‐1 mutant; assay type: in vivo; conditions: afb5‐1 vs WT dose-response, 8 days
Procedure: A. thaliana seed was surface sterilized in 10 mL of 50% bleach and two drops of Tween‐20 for 12 min and rinsed six times with sterile water. Sterile growth media consisted of half‐strength Murashige and Skoog salts supplemented with 0.4% agar and 0.8% sucrose. In a laminar flow hood, 8 mL of liquid media was transferred to sterile test‐tubes placed in a heat block to maintain media in a liquid state. Compounds were previously diluted in 50/50 DMSO/water to a known molar concentration. A 50‐μL aliquot of diluted compound was added to each tube to give a specified final concentration, normally 10, 1, 0.1, 0.01 or 0.001 μM. A single tube was treated with solvent only as a control. Test compounds were mixed into the media by pipetting up and down three times, then 6 mL of media with test compound was added to one well in a six‐well plate, working from low‐to‐high concentration, and allowed to solidify in the laminar flow hood. Approximately 15 sterilized seeds were placed on the solidified surface and the remaining 2 mL of liquid media was added to cover and disperse seeds. Plates were sealed with paraffin and moved to a Conviron growth chamber set to 60% humidity, 25 °C and light intensity 100 μE m^2 s^−1 with a 16 h photoperiod. After 8 days primary root measurements of five random plants were taken by removing plants from media and measuring with a ruler. Treatments were compared against the solvent control to determine percentage root growth inhibition. Each experiment was run twice and averages were combined for analysis.

AtAFB5 [7] = target: T3, AtAFB5; experiment: biochemical; assay type: binding
Procedure: as §1

AtTIR1 [8] = target: T1, AtTIR1; experiment: biochemical; assay type: binding
Procedure: as §1

AtAFB2 [9] = target: T2, AtAFB2; experiment: SPR single cycle kinetics, AtAFB2; assay type: binding
Procedure: as §1

[10] = averaged equilibrium dissociation constant, SPR single cycle kinetics, read-out: Ave KD

T1 sequence (Q570C0 whole entry, other chains not shown): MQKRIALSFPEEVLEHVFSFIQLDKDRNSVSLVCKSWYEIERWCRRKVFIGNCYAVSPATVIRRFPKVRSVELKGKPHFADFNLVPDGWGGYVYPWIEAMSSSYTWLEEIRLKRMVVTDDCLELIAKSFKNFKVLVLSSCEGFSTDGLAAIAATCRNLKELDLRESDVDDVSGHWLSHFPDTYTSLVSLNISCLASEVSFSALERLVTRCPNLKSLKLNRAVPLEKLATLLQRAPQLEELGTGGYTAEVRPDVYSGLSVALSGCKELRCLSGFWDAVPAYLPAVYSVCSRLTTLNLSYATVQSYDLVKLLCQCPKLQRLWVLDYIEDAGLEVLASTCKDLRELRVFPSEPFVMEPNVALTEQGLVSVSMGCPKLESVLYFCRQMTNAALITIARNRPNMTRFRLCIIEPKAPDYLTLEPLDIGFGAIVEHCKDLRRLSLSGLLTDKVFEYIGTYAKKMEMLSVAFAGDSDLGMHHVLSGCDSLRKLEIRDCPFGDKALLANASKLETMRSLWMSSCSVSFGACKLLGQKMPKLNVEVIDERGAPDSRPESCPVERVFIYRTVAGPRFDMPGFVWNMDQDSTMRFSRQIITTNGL
T1 sequence (Q39255 whole entry partner, other chains not shown): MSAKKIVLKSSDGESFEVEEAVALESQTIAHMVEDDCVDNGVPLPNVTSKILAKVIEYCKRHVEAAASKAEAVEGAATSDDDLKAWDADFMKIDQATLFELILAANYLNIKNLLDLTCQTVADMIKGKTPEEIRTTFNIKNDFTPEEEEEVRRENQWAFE
T3 sequence (Q9LTX2 whole entry, other chains not shown): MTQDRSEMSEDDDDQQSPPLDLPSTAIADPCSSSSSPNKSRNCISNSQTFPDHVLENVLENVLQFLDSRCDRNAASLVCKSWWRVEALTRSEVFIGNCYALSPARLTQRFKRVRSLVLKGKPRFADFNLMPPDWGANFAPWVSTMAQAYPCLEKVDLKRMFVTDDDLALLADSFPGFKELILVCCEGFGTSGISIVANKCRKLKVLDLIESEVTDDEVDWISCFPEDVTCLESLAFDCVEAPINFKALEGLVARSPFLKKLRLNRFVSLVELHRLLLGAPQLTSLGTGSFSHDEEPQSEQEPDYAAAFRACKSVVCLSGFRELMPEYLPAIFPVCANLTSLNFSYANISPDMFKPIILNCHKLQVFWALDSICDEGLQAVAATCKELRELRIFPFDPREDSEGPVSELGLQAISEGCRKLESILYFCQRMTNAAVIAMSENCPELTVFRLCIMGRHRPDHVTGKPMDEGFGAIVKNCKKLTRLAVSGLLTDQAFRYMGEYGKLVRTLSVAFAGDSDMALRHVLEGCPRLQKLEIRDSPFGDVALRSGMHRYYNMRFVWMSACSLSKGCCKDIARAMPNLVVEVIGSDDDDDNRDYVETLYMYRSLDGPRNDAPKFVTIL
T3 sequence (Q39255 whole entry partner, other chains not shown): as the sequence (Q39255 whole entry partner, other chains not shown) above
T2 sequence (Q9LW29 whole entry, other chains not shown): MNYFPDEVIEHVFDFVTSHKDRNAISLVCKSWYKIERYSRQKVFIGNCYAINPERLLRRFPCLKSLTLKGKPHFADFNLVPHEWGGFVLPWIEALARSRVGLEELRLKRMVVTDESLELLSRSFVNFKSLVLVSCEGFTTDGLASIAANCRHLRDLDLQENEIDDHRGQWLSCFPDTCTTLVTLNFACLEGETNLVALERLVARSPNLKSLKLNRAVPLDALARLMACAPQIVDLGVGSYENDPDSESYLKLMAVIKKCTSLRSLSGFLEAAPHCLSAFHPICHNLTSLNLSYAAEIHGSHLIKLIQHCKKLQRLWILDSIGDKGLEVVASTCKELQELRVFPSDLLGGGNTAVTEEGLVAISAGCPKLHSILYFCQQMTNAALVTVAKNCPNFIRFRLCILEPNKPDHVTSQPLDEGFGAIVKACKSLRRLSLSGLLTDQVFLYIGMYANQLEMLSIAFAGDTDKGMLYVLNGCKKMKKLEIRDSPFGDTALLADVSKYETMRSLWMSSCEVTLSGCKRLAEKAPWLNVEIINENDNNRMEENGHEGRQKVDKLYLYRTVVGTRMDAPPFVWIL
T2 sequence (Q39255 whole entry partner, other chains not shown): as the sequence (Q39255 whole entry partner, other chains not shown) above

Fold higher affinity for TIR1 (AtTIR1 [8]; from KD values, TIR1 versus other receptors) [fold] | SMILES | Relative binding (in words) (AtTIR1 [1]) | Relative binding (in words) (AtAFB2 [2]) | Relative binding (in words) (AtAFB5 [3]) | GR50 (DW % of NT) [4] [g ai ha^−1] | GR50 (visual injury) [4] [g ai ha^−1] | GR50 (DW % of NT) [5] [g ai ha^−1] | GR50 (visual injury) [5] [g ai ha^−1] | Resistance ratio (afb5‐1 vs WT), visual injury [5] | Resistance of afb5‐1 in root growth inhibition (in words) [6] | Resistance ratio (afb5‐1 vs WT), DW [5] | Kd (AtAFB5 [7]; [10]) [µM] | Kd (AtTIR1 [8]; [10]) [µM] | Kd (AtAFB2 [9]; [10]) [µM] | % of IAA binding (AtTIR1 [1]) [%] | % of IAA binding (AtAFB2 [2]) [%] | % of IAA binding (AtAFB5 [3]) [%] | Kd (AtAFB5 [7]) [µM] | Kd (AtTIR1 [8]) [µM] | Kd (AtAFB2 [9]) [µM]
– | O=C(O)c1nc(Cl)ccc1Cl [Clopyralid] | relatively low binding | relatively low binding | relatively low binding | 497 | 2698 | 3999 | 4259 | 1.6 | considerable resistance | – | – | – | – | – | – | – | – | – | –
– | Nc1cc(Cl)nc(C(=O)O)c1Cl [Aminopyralid] | relatively low binding | relatively low binding | relatively low binding | 3.4 | 40.1 | 68.7 | – | – | considerable resistance | 20.2 | – | – | – | – | – | – | – | – | –
– | Cc1cc(Cl)ccc1OCC(=O)O [MCPA, 2‐methyl‐4‐chlorophenoxyacetic acid] | lower binding | lower binding | lower binding | – | – | – | – | – | – | – | – | – | – | – | – | – | – | – | –
– | CC(Oc1ccc(Cl)cc1Cl)C(=O)O (centres unmarked) [dichlorprop] | lower binding | lower binding | lower binding | – | – | – | – | – | – | – | – | – | – | – | – | – | – | – | –
– | Nc1c(F)c(-c2ccc(Cl)cc2)nc(C(=O)O)c1Cl [DAS534] | – | – | strong bias for binding to AtAFB5 | – | 0.4 | 1.2 | 4.3 | 10.8 | – | – | – | – | – | – | – | – | – | – | –
– | O=C(O)Cc1cccc2ccccc12 [1‐NAA, 1‐napthaleneacetic acid] | – | – | – | – | – | – | – | – | No resistance | – | – | – | – | – | – | – | – | – | –
– | O=C(O)COc1nc(Cl)c(Cl)cc1Cl [Triclopyr] | lower binding than IAA | lower binding than IAA | lower binding than IAA | 4.7 | 31.8 | 18.4 | 41.8 | 1.3 | – | 3.9 | – | – | – | – | – | – | – | – | –
– | Nc1c(Cl)c(F)nc(OCC(=O)O)c1Cl [Fluroxypyr] | lower binding than IAA | lower binding than IAA | lower binding than IAA | 35.7 | 234 | 84.1 | 310 | 1.3 | – | 2.4 | 95 | 18 | 45 | – | – | – | – | – | –
– | COc1c(Cl)ccc(-c2cc(N)c(Cl)c(C(=O)O)n2)c1F [Halauxifen] | – | – | – | 0.08 | 0.4 | 0.6 | 2.4 | 6 | considerable resistance | 7.5 | 2.4 | 128 | 333 | 10 | < 5 | 170 | – | – | –
– | Cc1cc(Cl)ccc1OC(C)C(=O)O (centres unmarked) [mecoprop] | lower binding | lower binding | lower binding | – | – | – | – | – | – | – | – | – | – | – | – | – | – | – | –
4 | O=C(O)Cc1c[nH]c2ccccc12 [IAA, indole‐3‐acetic acid] | – | – | – | – | – | – | – | – | – | – | 33 | 7.9 | 12.6 | – | – | – | – | – | –
– | COc1c(Cl)ccc(Cl)c1C(=O)O [Dicamba] | low binding | low binding | low binding | 16.5 | 169 | 60.8 | 290 | 1.7 | No resistance | 3.7 | – | – | – | – | – | – | – | – | –
– | O=C(O)COc1ccc(Cl)cc1Cl [2,4‐D, 2,4‐dichlorophenoxyacetic acid] | – | – | – | 3.9 | 19.2 | 9.9 | 40.5 | 2.1 | No resistance | 2.5 | – | – | – | 29 | 22 | 40 | 152 | 229 | 392
– | COc1c(Cl)ccc(-c2nc(C(=O)O)c(Cl)c(N)c2F)c1F [Florpyrauxifen] | – | – | – | 0.1 | 0.7 | 1 | 5.2 | 7.4 | considerable resistance | 10 | 2.7 | 62 | 105 | – | – | – | – | – | –
– | Nc1nc(C2CC2)nc(C(=O)O)c1Cl [Aminocyclopyrachlor] | – | – | – | 4.4 | 7 | 8.3 | 36.8 | 5.3 | considerable resistance | 1.9 | – | – | – | – | – | – | – | – | –
